Patent US20250066344A1 (BRISTOL-MYERS SQUIBB COMPANY, priority 2021, published 2025)

Biological target: T1, human RXFP1 (Homo sapiens, UniProt Q9HBX9)
T1 construct: expressed in transfected cells
T1 sequence (Q9HBX9 1-757): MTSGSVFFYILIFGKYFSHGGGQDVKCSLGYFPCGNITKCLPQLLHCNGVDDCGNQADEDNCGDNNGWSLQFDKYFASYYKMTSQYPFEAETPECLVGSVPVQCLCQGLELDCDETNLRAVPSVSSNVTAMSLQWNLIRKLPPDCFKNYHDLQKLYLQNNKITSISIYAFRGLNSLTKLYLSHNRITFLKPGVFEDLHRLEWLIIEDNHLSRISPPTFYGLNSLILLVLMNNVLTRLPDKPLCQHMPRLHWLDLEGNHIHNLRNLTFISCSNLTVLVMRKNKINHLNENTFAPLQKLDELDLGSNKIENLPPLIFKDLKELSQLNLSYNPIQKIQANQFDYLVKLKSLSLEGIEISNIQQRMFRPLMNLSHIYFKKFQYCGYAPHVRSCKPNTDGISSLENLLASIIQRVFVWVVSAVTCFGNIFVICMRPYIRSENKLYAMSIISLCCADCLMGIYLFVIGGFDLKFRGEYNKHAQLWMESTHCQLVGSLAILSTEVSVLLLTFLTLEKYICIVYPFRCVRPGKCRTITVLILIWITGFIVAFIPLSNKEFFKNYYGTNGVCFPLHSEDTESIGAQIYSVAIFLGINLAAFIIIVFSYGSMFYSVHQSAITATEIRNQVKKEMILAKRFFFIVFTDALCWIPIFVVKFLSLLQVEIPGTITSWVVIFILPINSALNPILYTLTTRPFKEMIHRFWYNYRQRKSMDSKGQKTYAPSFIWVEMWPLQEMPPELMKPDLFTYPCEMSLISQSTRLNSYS
Assay: RXFP1 cyclic adenosine monophosphate (cAMP) assay, hRXFP1 HEK293
Assay type: cell-based
Settings: HEK293 cells stably expressing human RXFP1; 30 min at room temperature; HTRF cAMP
Protocol: RXFP1 Cyclic Adenosine Monophosphate (cAMP) Assays. Human embryonic kidney cells 293 (HEK293) cells and HEK293 cells stably expressing human RXFP1, were cultured in MEM medium supplemented with 10% qualified FBS, and 300 μg/ml hygromycin (Life Technologies). Cells were dissociated and suspended in assay buffer. The assay buffer was HBSS buffer (with calcium and magnesium) containing 20 mM HEPES, 0.05% BSA, and 0.5 mM IBMX. Cells (3000 cells per well, except 1500 cell per well for HEK293 cells stably expressing human RXFP1) were added to 384-well Proxiplates (Perkin-Elmer). Cells were immediately treated with test compounds in DMSO (2% final) at final concentrations in the range of 0.010 nM to 50 μM. Cells were incubated for 30 min at room temperature. The level of intracellular cAMP was determined using the HTRF HiRange cAMP assay reagent kit (Cisbio) according to manufacturer's instructions. Solutions of cryptate conjugated anti-cAMP and d2 fluorophore-labelled cAMP were made in a supplied lysis buffer separately. Upon completion of the reaction, the cells were lysed with equal volume of the d2-cAMP solution and anti-cAMP solution. After a 1 h room temperature incubation, time-resolved fluorescence intensity was measured using the Envision (Perkin-Elmer) at 400 nm excitation and dual emission at 590 nm and 665 nm. A calibration curve was constructed with an external cAMP standard at concentrations ranging from 2.7 μM to 0.1 μM by plotting the fluorescent intensity ratio from 665 nm emission to the intensity from the 590 nm emission against cAMP concentrations. The potency and activity of a compound to […] cAMP production was then determined by fitting to a 4-parametric logistic equation from a plot of cAMP level versus compound concentrations.
The examples disclosed below were tested in the human RXFP1 (hRXFP) HEK293 cAMP assay described above and found to have agonist activity. Tables 1-3, lists EC50 values in the hRXFP1 HEK293 cAMP assay measured for the examples.
Table A lists EC50 values in the hRXFP1 HEK293 cAMP assay measured for the examples.

| SMILES | EC50 |
| --- | --- |
| COc1ccc(-c2cc(C(NC(=O)C3CCOCC3)C(=O)O)ccc2F)cc1C(=O)Nc1cc2sc(C)nc2cc1C(=O)Nc1ccc(F)c(C(F)(F)F)c1 (single isomer, unassigned) [Example 30, 2-(6-fluoro-3′-((5-((4-fluoro-3-(trifluoromethyl)phenyl)carbamoyl)-2-methylbenzo[d]thiazol-6-yl)carbamoyl)-4′-methoxy-[1,1′-biphenyl]-3-yl)-2-(tetrahydro-2H-pyran-4-carboxamido)acetic acid] | 15 nM |
| CC1(C)Cc2cc(C3=NOC4CC(CO)CC34)cc(C(=O)Nc3cc4c(cc3C(=O)Nc3ccc(F)c(C(F)(F)F)c3)OC(F)(F)O4)c2O1 (centres unmarked) [Example 100, 2,2-difluoro-N-(4-fluoro-3-(trifluoromethyl)phenyl)-6-(5-(5-(hydroxymethyl)-3a,5,6,6a-tetrahydro-4H-cyclopentafdlisoxazol-3-yl)-2,2-dimethyl-2,3-dihydrobenzofuran-7-carboxamido)benzo[d] [1,3]dioxole-5-carboxamide] | 8.4 nM |
| COc1cc(F)c(C(=O)NCC2(S(C)(=O)=O)CC2)cc1C(=O)Nc1cc2c(cc1C(=O)Nc1ccc(F)c(C(F)(F)F)c1)OC(F)(F)O2 [Example 36, N1-(2,2-difluoro-6-((4-fluoro-3-(trifluoromethyl)phenyl)carbamoyl)benzo[d] [1,3]dioxol-5-yl)-4-fluoro-6-methoxy-N3-((1-(methylsulfonyl)cyclopropyl)methyl)iso-phthalamide] | 14 nM |
| COc1ccc(N2CC(CO)CC2=O)cc1C(=O)Nc1cc2nc(C)sc2cc1C(=O)Nc1ccc(F)c(C(F)(F)F)c1 (centres unmarked) [Example 13, N-(4-fluoro-3-(trifluorometh-yl)phenyl)-5-(5-(4-(hy-droxymethyl)-2-oxopyrroli-din-1-yl)-2-methoxybenz-amido)-2-methylbenzo [d]thiazole-6-carboxamide] | 540 nM |
| COc1ccc(-c2nc3c(s2)CN(CC(N)=O)CC3)cc1C(=O)Nc1cc2c(cc1C(=O)Nc1ccc(F)c(C(F)(F)F)c1)OC(F)(F)O2 [Example 53, 6-(5-(5-(2-amino-2-oxoethyl)-4,5,6,7-tetrahydrothiazolo[5,4-c]pyridin-2-yl)-2-methoxybenzamido)-2,2-difluoro-N-(4-fluoro-3-(trifluoromethyl)phenyl)benzo[d][1,3]dioxole-5-carboxamide] | 33 nM |
| COc1ccc(C2CCCN(S(C)(=O)=O)C2)cc1C(=O)Nc1cc2c(cc1C(=O)Nc1ccc(F)c(C(F)(F)F)c1)OC(F)(F)O2 (single isomer, unassigned) [Example 49, 2,2-difluoro-N-(4-fluoro-3-(trifluoromethyl)phenyl)-6-(2-methoxy-5-(1-(methylsulfonyl)piperidin-3-yl)benzamido)benzo[d][1,3]dioxole-5-carboxamide] | 154 nM |
| COCC1CC(c2ccc(OC)c(C(=O)Nc3cc4c(cc3C(=O)Nc3ccc(F)c(C(F)(F)F)c3)OC(F)(F)O4)c2)=NO1 (centres unmarked) [Example 83, 2,2-difluoro-N-(4-fluoro-3-(trifluoromethyl)phenyl)-6-(2-methoxy-5-(5-(methoxymethyl)-4,5-dihydroisoxazol-3-yl)benzamido)benzo[d] [1,3]dioxole-5-carboxamide] | 399 nM |
| COc1ccc(C2=NOC(C(C)(C)O)C2)cc1C(=O)Nc1cc2c(cc1C(=O)Nc1ccc(F)c(C(F)(F)F)c1)OC(F)(F)O2 (single isomer, unassigned) [Example 76, 2,2-difluoro-N-(4-fluoro-3-(trifluoromethyl)phenyl)-6-(5-(5-(2-hydroxypropan-2-yl)-4,5-dihydroisoxazol-3-yl)-2-methoxybenzamido) benzo[d][1,3]dioxole-5-carboxamide] | 258 nM |
| COc1ccc(C(=O)N2CC(C(C)(C)O)C2)cc1C(=O)Nc1cc2c(cc1C(=O)Nc1ccc(F)c(C(F)(F)F)c1)OC(F)(F)O2 [Example 38, 2,2-difluoro-N-(4-fluoro-3-(trifluoromethyl)phenyl)-6-(5-(3-(2-hydroxypropan-2-yl)azetidine-1-carbonyl)-2-methoxybenzamido) benzo[d][1,3]dioxole-5-carboxamide] | 84 nM |
| COc1ccc(C2=NOC3(COC(=O)C3)C2)cc1C(=O)Nc1cc2c(cc1C(=O)Nc1ccc(F)c(C(F)(F)F)c1)OC(F)(F)O2 (centres unmarked) [Example 78, 2,2-difluoro-N-(4-fluoro-3-(trifluoromethyl)phenyl)-6-(2-methoxy-5-(8-oxo-1,7-dioxa-2-azaspiro[4.4]non-2-en-3-yl)benzamido)benzo[d] [1,3]dioxole-5-carboxamide] | 262 nM |
| COc1ccc(C#CCO)cc1C(=O)Nc1cc2c(cc1C(=O)Nc1ccc(F)c(C(F)(F)F)c1)OC(F)(F)O2 [Example 59, 2,2-difluoro-N-(4-fluoro-3-(trifluoromethyl)phenyl)-6-(5-(3-hydroxyprop-1-yn-1-yl)-2-methoxybenzamido) benzo[d][1,3]dioxole-5-carboxamide] | 41 nM |
| COc1ccc(C2=NOC3CC(O)CC23)cc1C(=O)Nc1cc2nc(C)sc2cc1C(=O)Nc1ccc(F)c(C(F)(F)F)c1 (single isomer, unassigned) [Example 8, N-(4-fluoro-3-(trifluorometh-yl)phenyl)-5-(5-(5-hydroxy-3a,5,6,6a-tetra-hydro-4H-cyclopenta[d]isoxazol-3-yl)-2-methoxy-benzamido)-2-methylbenzo [d]thiazole-6-carboxamide] | 40 nM |
| COc1ccc(C2CCNC2)cc1C(=O)Nc1cc2c(cc1C(=O)Nc1ccc(F)c(C(F)(F)F)c1)OC(F)(F)O2 (single isomer, unassigned) [Example 54, 2,2-difluoro-N-(4-fluoro-3-(trifluoromethyl)phenyl)-6-(2-methoxy-5-(pyrrolidin-3-yl)benzamido)benzo[d] [1,3]dioxole-5-carboxamide] | 683 nM |
| COc1ccc(-c2noc(C(C)(C)O)n2)cc1C(=O)Nc1cc2c(cc1C(=O)Nc1ccc(F)c(C(F)(F)F)c1)OC(F)(F)O2 [Example 84, 2,2-difluoro-N-(4-fluoro-3-(trifluoromethyl)phenyl)-6-(5-(5-(2-hydroxypropan-2-yl)-1,2,4-oxadiazol-3-yl)-2-methoxybenzamido) benzo[d][1,3]dioxole-5-carboxamide] | 485 nM |
| COc1ccc(C2=NOC3CC(CO)CC23)cc1C(=O)Nc1cc2c(cc1C(=O)Nc1ccc(F)c(C(F)(F)F)c1)OC(F)(F)O2 (centres unmarked) [Example 99, 2,2-difluoro-N-(4-fluoro-3-(trifluoromethyl)phenyl)-6-(5-(5-(hydroxymethyl)-3a,5,6,6a-tetrahydro-4H-cyclopenta[d]isoxazol-3-yl)-2-methoxybenzamido) benzo[d][1,3]dioxole-5-carboxamide] | 3.9 nM |
| COc1ccc(C2=NOC3CC(O)CC23)cc1C(=O)Nc1cc2nc(C)sc2cc1C(=O)Nc1ccc(F)c(C(F)(F)F)c1 (single isomer, unassigned) [Example 24, N-(4-fluoro-3-(trifluoro-methyl)phen-yl)-5-(5-(5-hydroxy-3a,5,6,6a-tetrahydro-4H-cyclopenta [d]isoxazol-3-yl)-2-methoxy-benzamido)-2-methylbenzo [d]thiazole-6-carboxamide] | 750 nM |
| COc1ccc(C2=NOC3CC(COP(=O)(O)O)CC23)cc1C(=O)Nc1cc2nc(C)sc2cc1C(=O)Nc1ccc(F)c(C(F)(F)F)c1 (centres unmarked) [Example 9, (3-(3-((6-((4-fluoro-3-(trifluorometh-yl)phenyl)car-bamoyl)-2-methylbenzo [d]thiazol-5-yl)carbamo-yl)-4-meth-oxyphenyl)-3a,5,6,6a-tetra-hydro-4H-cyclopenta[d]isoxazol-5-yl)methyldi-hydrogen phosphate] | 110 nM |
